Laboratory results: US20040006236A1, “Diaminopropionic acid derivatives” (priority 1999, published 2004)

Legend:
[1] = tested on: cell-surface Mac-1 adhesion to immobilized fibrinogen (HL-60 cells); experiment: Mac-1/Fibrinogen cell-based screening assay; set-up: species or system human; settings: Homo sapiens, HL-60, HL-60 cells; read-out: Mac-1/Fgn Cell based Assay IC50
In short: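 Wells coated with fibrinogen and blocked with PVP. Labeled HL-60 cells (2×10^6 cells/mL in RPMI/0.05% BSA/0.2 mM MnCl2) preincubated with DMSO-diluted compounds for 10 min at 37° C, then left to adhere 30 min at 37° C/5% CO2. Unbound cells washed off with TBS.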

[2] = target: T1, LFA-1 binding to immobilized ICAM-1 (Homo sapiens, UniProt P05107+P20701); experiment: LFA-1/ICAM-1 protein-protein assay (solid-phase ELISA); settings: read-out: LFA-1/ICAM-1 Protein-Protein Assay IC50
T1 construct: made in house; host or cells: transfected 293 cells (LFA-1)
T1 sequence (P20701 26-1170): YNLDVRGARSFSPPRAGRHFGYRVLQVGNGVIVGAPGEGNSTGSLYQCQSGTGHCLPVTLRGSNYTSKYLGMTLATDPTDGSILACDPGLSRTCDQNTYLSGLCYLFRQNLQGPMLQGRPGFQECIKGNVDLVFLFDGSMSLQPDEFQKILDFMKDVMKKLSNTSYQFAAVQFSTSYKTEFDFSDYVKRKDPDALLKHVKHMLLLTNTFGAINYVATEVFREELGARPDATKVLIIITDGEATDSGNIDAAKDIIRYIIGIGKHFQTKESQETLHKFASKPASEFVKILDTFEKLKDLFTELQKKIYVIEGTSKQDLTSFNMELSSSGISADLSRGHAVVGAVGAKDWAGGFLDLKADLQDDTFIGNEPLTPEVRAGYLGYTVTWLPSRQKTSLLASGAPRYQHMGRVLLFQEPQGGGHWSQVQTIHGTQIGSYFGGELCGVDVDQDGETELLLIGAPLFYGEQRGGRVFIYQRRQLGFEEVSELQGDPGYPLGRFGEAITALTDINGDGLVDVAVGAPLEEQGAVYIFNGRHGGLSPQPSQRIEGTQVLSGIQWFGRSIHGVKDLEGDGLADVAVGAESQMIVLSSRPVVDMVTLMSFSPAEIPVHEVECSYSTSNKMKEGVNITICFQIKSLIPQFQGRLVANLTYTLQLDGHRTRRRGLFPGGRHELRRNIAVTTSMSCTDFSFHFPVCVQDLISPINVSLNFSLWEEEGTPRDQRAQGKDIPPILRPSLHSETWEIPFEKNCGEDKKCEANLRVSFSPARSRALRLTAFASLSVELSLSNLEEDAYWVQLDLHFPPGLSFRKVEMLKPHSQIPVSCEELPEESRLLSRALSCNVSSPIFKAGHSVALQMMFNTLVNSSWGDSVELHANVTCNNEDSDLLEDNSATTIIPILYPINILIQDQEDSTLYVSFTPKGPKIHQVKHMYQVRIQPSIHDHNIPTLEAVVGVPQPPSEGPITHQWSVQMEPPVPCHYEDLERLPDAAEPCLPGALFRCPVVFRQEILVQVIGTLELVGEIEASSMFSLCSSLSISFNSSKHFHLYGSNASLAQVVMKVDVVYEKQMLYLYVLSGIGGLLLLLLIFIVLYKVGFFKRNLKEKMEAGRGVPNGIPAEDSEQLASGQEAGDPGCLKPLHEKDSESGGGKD
T1 sequence (P05107 23-769): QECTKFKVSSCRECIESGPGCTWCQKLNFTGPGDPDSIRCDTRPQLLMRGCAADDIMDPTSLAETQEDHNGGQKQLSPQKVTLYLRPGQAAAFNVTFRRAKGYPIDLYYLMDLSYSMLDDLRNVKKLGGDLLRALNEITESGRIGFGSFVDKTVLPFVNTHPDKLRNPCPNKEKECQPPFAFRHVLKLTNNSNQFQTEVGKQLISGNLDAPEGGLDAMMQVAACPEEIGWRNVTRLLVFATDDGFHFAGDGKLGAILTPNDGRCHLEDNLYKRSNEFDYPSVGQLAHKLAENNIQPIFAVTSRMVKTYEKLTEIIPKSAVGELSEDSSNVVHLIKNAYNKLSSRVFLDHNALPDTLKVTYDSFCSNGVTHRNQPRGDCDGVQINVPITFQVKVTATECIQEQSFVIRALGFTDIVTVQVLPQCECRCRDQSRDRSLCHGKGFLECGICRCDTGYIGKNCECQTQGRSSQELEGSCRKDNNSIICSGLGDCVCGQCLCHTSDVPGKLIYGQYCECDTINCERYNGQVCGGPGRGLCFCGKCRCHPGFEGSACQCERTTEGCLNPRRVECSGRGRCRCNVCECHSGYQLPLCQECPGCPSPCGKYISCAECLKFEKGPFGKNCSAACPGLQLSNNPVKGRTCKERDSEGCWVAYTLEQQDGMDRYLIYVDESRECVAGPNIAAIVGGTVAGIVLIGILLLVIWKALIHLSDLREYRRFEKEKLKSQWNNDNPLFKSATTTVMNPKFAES
In short: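 Human 5dICAM-Ig (ICAM-1 extracellular domain–IgG Fc) coated on plates; membrane-bound LFA-1 from transfected 293 cells (280 ng/mL) added with compound in Mn2+-containing HEPES buffer pH 7.2, 2 h at 37° C. Bound LFA-1 detected via anti-β2 antibody and HRP/TMB at 450 nm; IC50s determined.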

SMILES: COc1cccc(C(=O)NC[C@H](NC(=O)c2ccc(C(=O)NCc3cccc(O)c3)cc2Cl)C(=O)O)c1 [Example 76, N-[2-chloro-4-[[[(3-hydroxyphenyl)methyl]amino]-carbonyl]benzoyl]-3-(3-methoxybenzoylamino)-L-alanine]
- IC50 [1]: 43 nM
- IC50 [2]: 1.2 nM

SMILES: O=C1CC[C@@H](C(=O)NC[C@H](NC(=O)c2ccc(C(=O)NCc3cccc(O)c3)cc2Cl)C(=O)O)O1 [Example 96]
- IC50 [2]: 3.1 nM

SMILES: O=C(NCc1cccc(O)c1)c1ccc(C(=O)N[C@@H](CNC(=O)C2CC2)C(=O)O)c(Cl)c1 [Example 97]
- IC50 [2]: 1.9 nM

SMILES: O=C(NCc1cccc(O)c1)c1ccc(C(=O)N[C@@H](CNC(=O)C2(c3ccccc3)CC2)C(=O)O)c(Cl)c1 [Example 99]
- IC50 [2]: 7.5 nM

SMILES: O=C(NCc1cccc(O)c1)c1ccc(C(=O)N[C@@H](CNC(=O)C2CCC2)C(=O)O)c(Cl)c1 [Example 100]
- IC50 [2]: 2.9 nM

SMILES: O=C(NCc1cccc(O)c1)c1ccc(C(=O)N[C@@H](CNC(=O)C2CCCC2)C(=O)O)c(Cl)c1 [Example 101]
- IC50 [1]: 79 nM
- IC50 [2]: 1.9 nM

SMILES: COCCC1(C(=O)NC[C@H](NC(=O)c2ccc(C(=O)NCc3cccc(O)c3)cc2Cl)C(=O)O)CCCC1 [Example 102]
- IC50 [2]: 2.2 nM

SMILES: O=C(NCc1cccc(O)c1)c1ccc(C(=O)N[C@@H](CNC(=O)C2(c3ccccc3)CCCC2)C(=O)O)c(Cl)c1 [Example 103]
- IC50 [1]: 123 nM
- IC50 [2]: 1.6 nM

SMILES: O=C(NCc1cccc(O)c1)c1ccc(C(=O)N[C@@H](CNC(=O)C2CCCCC2)C(=O)O)c(Cl)c1 [Example 104]
- IC50 [1]: 82 nM
- IC50 [2]: 3.5 nM

SMILES: CC1(C(=O)NC[C@H](NC(=O)c2ccc(C(=O)NCc3cccc(O)c3)cc2Cl)C(=O)O)CCCCC1 [Example 105]
- IC50 [1]: 151 nM
- IC50 [2]: 1.9 nM

SMILES: O=C(NCc1cccc(O)c1)c1ccc(C(=O)N[C@@H](CNC(=O)[C@H](CC2CCCCC2)n2cccc2)C(=O)O)c(Cl)c1 [Example 110]
- IC50 [2]: 3.7 nM

SMILES: Cc1noc(C)c1CCC(=O)NC[C@H](NC(=O)c1ccc(C(=O)NCc2cccc(O)c2)cc1Cl)C(=O)O [Example 111]
- IC50 [2]: 2 nM

SMILES: O=C(CCN1CCCCC1)NC[C@H](NC(=O)c1ccc(C(=O)NCc2cccc(O)c2)cc1Cl)C(=O)O [Example 112]
- IC50 [1]: 161 nM
- IC50 [2]: 1.5 nM

SMILES: C/C=C/C(=O)NC[C@H](NC(=O)c1ccc(C(=O)NCc2cccc(O)c2)cc1Cl)C(=O)O [Example 113]
- IC50 [2]: 1.7 nM

SMILES: COc1ccc(/C=C/C(=O)NC[C@H](NC(=O)c2ccc(C(=O)NCc3cccc(O)c3)cc2Cl)C(=O)O)cc1 [Example 114]
- IC50 [2]: 1.8 nM

SMILES: O=C(/C=C/c1cccnc1)NC[C@H](NC(=O)c1ccc(C(=O)NCc2cccc(O)c2)cc1Cl)C(=O)O [Example 115]
- IC50 [2]: 2.2 nM

SMILES: O=C(/C=C/c1cccs1)NC[C@H](NC(=O)c1ccc(C(=O)NCc2cccc(O)c2)cc1Cl)C(=O)O [Example 116]
- IC50 [1]: 86 nM
- IC50 [2]: 1.8 nM

SMILES: CC(=O)Oc1ccccc1C(=O)NC[C@H](NC(=O)c1ccc(C(=O)NCc2cccc(O)c2)cc1Cl)C(=O)O [Example 117]
- IC50 [1]: 131 nM
- IC50 [2]: 3.6 nM

SMILES: Nc1cccc(C(=O)NC[C@H](NC(=O)c2ccc(C(=O)NCc3cccc(O)c3)cc2Cl)C(=O)O)c1 [Example 118]
- IC50 [1]: 16 nM
- IC50 [2]: 1.9 nM

SMILES: NS(=O)(=O)c1ccc(C(=O)NC[C@H](NC(=O)c2ccc(C(=O)NCc3cccc(O)c3)cc2Cl)C(=O)O)cc1 [Example 119]
- IC50 [1]: 468 nM
- IC50 [2]: 3 nM

SMILES: O=C(NCc1cccc(O)c1)c1ccc(C(=O)N[C@@H](CNC(=O)c2ccccc2Br)C(=O)O)c(Cl)c1 [Example 120]
- IC50 [2]: 4.9 nM

SMILES: O=C(NCc1cccc(O)c1)c1ccc(C(=O)N[C@@H](CNC(=O)c2cccc(Br)c2)C(=O)O)c(Cl)c1 [Example 121]
- IC50 [1]: 80 nM
- IC50 [2]: 1.6 nM

SMILES: O=C(NCc1cccc(O)c1)c1ccc(C(=O)N[C@@H](CNC(=O)c2ccccc2Cl)C(=O)O)c(Cl)c1 [Example 122]
- IC50 [2]: 2.8 nM

SMILES: O=C(NCc1cccc(O)c1)c1ccc(C(=O)N[C@@H](CNC(=O)c2cccc(Cl)c2)C(=O)O)c(Cl)c1 [Example 123]
- IC50 [1]: 20 nM
- IC50 [2]: 0.8 nM

SMILES: O=C(NCc1cccc(O)c1)c1ccc(C(=O)N[C@@H](CNC(=O)c2ccc(Cl)cc2)C(=O)O)c(Cl)c1 [Example 124]
- IC50 [2]: 3.3 nM

SMILES: N#Cc1cccc(C(=O)NC[C@H](NC(=O)c2ccc(C(=O)NCc3cccc(O)c3)cc2Cl)C(=O)O)c1 [Example 126]
- IC50 [1]: 27 nM
- IC50 [2]: 1.2 nM

SMILES: CN(C)c1cccc(C(=O)NC[C@H](NC(=O)c2ccc(C(=O)NCc3cccc(O)c3)cc2Cl)C(=O)O)c1 [Example 127]
- IC50 [1]: 71 nM
- IC50 [2]: 2.2 nM

SMILES: CN(C)c1ccc(C(=O)NC[C@H](NC(=O)c2ccc(C(=O)NCc3cccc(O)c3)cc2Cl)C(=O)O)cc1 [Example 128]
- IC50 [2]: 4.2 nM

SMILES: CCOc1ccc(C(=O)NC[C@H](NC(=O)c2ccc(C(=O)NCc3cccc(O)c3)cc2Cl)C(=O)O)cc1 [Example 130]
- IC50 [2]: 5 nM

SMILES: O=C(NCc1cccc(O)c1)c1ccc(C(=O)N[C@@H](CNC(=O)c2cccc(F)c2)C(=O)O)c(Cl)c1 [Example 131]
- IC50 [1]: 12 nM
- IC50 [2]: 0.8 nM

SMILES: O=C(NCc1cccc(O)c1)c1ccc(C(=O)N[C@@H](CNC(=O)c2cccc(O)c2)C(=O)O)c(Cl)c1 [Example 132]
- IC50 [1]: 3.3 nM
- IC50 [2]: 0.6 nM

SMILES: O=C(NCc1cccc(O)c1)c1ccc(C(=O)N[C@@H](CNC(=O)c2cccc(I)c2)C(=O)O)c(Cl)c1 [Example 133]
- IC50 [1]: 32 nM
- IC50 [2]: 1.5 nM

SMILES: COc1ccccc1C(=O)NC[C@H](NC(=O)c1ccc(C(=O)NCc2cccc(O)c2)cc1Cl)C(=O)O [Example 134]
- IC50 [1]: 218 nM
- IC50 [2]: 2.1 nM

SMILES: COc1ccc(C(=O)NC[C@H](NC(=O)c2ccc(C(=O)NCc3cccc(O)c3)cc2Cl)C(=O)O)cc1 [Example 135]
- IC50 [2]: 6.3 nM

SMILES: COC(=O)c1cccc(C(=O)NC[C@H](NC(=O)c2ccc(C(=O)NCc3cccc(O)c3)cc2Cl)C(=O)O)c1 [Example 136]
- IC50 [1]: 121 nM
- IC50 [2]: 2 nM

SMILES: Cc1ccccc1C(=O)NC[C@H](NC(=O)c1ccc(C(=O)NCc2cccc(O)c2)cc1Cl)C(=O)O [Example 137]
- IC50 [1]: 84 nM
- IC50 [2]: 1.1 nM

SMILES: Cc1cccc(C(=O)NC[C@H](NC(=O)c2ccc(C(=O)NCc3cccc(O)c3)cc2Cl)C(=O)O)c1 [Example 138]
- IC50 [1]: 17 nM
- IC50 [2]: 0.7 nM

SMILES: Cc1ccc(C(=O)NC[C@H](NC(=O)c2ccc(C(=O)NCc3cccc(O)c3)cc2Cl)C(=O)O)cc1 [Example 139]
- IC50 [2]: 4.8 nM

SMILES: CCCCCOc1ccc(C(=O)NC[C@H](NC(=O)c2ccc(C(=O)NCc3cccc(O)c3)cc2Cl)C(=O)O)cc1 [Example 143]
- IC50 [2]: 11 nM

SMILES: O=C(NCc1cccc(O)c1)c1ccc(C(=O)N[C@@H](CNC(=O)c2ccccc2Oc2ccccc2)C(=O)O)c(Cl)c1 [Example 144]
- IC50 [2]: 6.6 nM

SMILES: COc1cc(C(=O)NC[C@H](NC(=O)c2ccc(C(=O)NCc3cccc(O)c3)cc2Cl)C(=O)O)cc(OC)c1OC [Example 147]
- IC50 [2]: 15 nM

SMILES: O=C(NCc1cccc(O)c1)c1ccc(C(=O)N[C@@H](CNC(=O)c2ccc([N+](=O)[O-])o2)C(=O)O)c(Cl)c1 [Example 149]
- IC50 [2]: 2.9 nM

SMILES: Cc1cccc(C(=O)NC[C@H](NC(=O)c2ccc(C(=O)NCc3cccc(O)c3)cc2Cl)C(=O)O)n1 [Example 163]
- IC50 [2]: 3.2 nM

SMILES: O=C(NCc1cccc(O)c1)c1ccc(C(=O)N[C@@H](CNC(=O)c2cccnc2)C(=O)O)c(Cl)c1 [Example 165]
- IC50 [2]: 1.3 nM

SMILES: O=C(NCc1cccc(O)c1)c1ccc(C(=O)N[C@@H](CNS(=O)(=O)c2ccccc2)C(=O)O)c(Cl)c1 [Example 360, 3-(phenylsulfonylamino)-N-[2-chloro-4-[[[(3-hydroxyphenyl)methyl]amino]carbonyl]benzoyl]-L-alanine]
- IC50 [2]: 5.2 nM

SMILES: CC(=O)Nc1nc(C)c(S(=O)(=O)NC[C@H](NC(=O)c2ccc(C(=O)N[C@H](C)c3cccc4ccccc34)cc2Cl)C(=O)O)s1 [Example 362]
- IC50 [2]: 8.8 nM

SMILES: O=C(NCc1ccc(C(=O)N[C@@H](CNC(=O)c2ccccc2)C(=O)O)c(Cl)c1)c1cccc(O)c1 [Example 364, N-[2-chloro-4-[[(3-hydroxyphenyl)carbonyl]aminomethyl]benzoyl]-3-benzoylamino-L-alanine]
- IC50 [2]: 7.7 nM

SMILES: O=C(NC[C@H](NC(=O)c1ccc(CNC(=O)c2ccccc2O)cc1Cl)C(=O)O)c1ccccc1 [Example 365]
- IC50 [2]: 18 nM

SMILES: O=C(NCc1ccc(C(=O)N[C@@H](CNC(=O)c2ccccc2)C(=O)O)c(Cl)c1)c1cc(O)cc(O)c1 [Example 366]
- IC50 [2]: 3.4 nM

SMILES: O=C(NCc1ccc(C(=O)N[C@@H](CNC(=O)c2ccccc2)C(=O)O)c(Cl)c1)c1ccc2[nH]ccc2c1 [Example 368]
- IC50 [2]: 11 nM

SMILES: O=C(NCc1ccc(C(=O)N[C@@H](CNC(=O)c2ccccc2)C(=O)O)c(Cl)c1)c1ccc2cc[nH]c2c1 [Example 369]
- IC50 [2]: 8.5 nM

SMILES: N=C(N)NC[C@H](NC(=O)c1ccc(C(=O)NCc2cccc(O)c2)cc1Cl)C(=O)O [Example 371, N-[2-chloro-4-[[[(3-hydroxyphenyl)methyl]amino]-carbonyl]benzoyl]-3-(aminoiminomethyl)amino-L-alanine]
- IC50 [2]: 10 nM

SMILES: O=C(NC[C@H](NC(=O)c1ccc(/C=C/Cc2ccccc2)cc1Cl)C(=O)O)c1cccs1 [Example 373, N-[2-chloro-4-(3-phenyl-1-propenyl)benzoyl]-3-(thiophene-2-carbonyl)amino-L-alanine]
- IC50 [2]: 7.7 nM

SMILES: O=C(NC[C@H](NC(=O)c1ccc(C(=O)[C@H]2C[C@@H]2c2ccccc2)cc1Cl)C(=O)O)c1cccs1 [Example 377]
- IC50 [2]: 19 nM

SMILES: O=C(CCc1ccccc1)c1ccc(C(=O)N[C@@H](CNC(=O)c2cccs2)C(=O)O)c(Cl)c1 [Example 378]
- IC50 [2]: 9.7 nM
